Test results reported in patent publication US20240299553A1, “INDOCARBOCYANINE LIPID DERIVATIVES FOR IN VIVO CARGO DELIVERY” (priority 2021, published 2024).

How the values were obtained:
[1] = tested on: 4T1 tumor cells and F4/80+ tumor-associated macrophages; experiment: Flow cytometry of 4T1 tumor single-cell suspension after i.v. labeled liposomes; assay type: in vivo, mice; settings: 72 h after a single i.v. injection; liposomes labeled with 0.2% dye
Description: 4T1 cell line was purchased from the ATCC and verified using a sequencing core. GL261 cells were obtained from the National Cancer Institute (NCI), and CT2A cells were a gift from Dr. Tom Seyfried (Boston College). LY2 cells were from Dr. Sana Karam, University of Colorado Anschutz Medical campus. Cells were grown at 37° C. in RPMI 1640 medium containing 10% heat-inactivated fetal bovine serum, 10 mM HEPES, 100 U/ml penicillin, and […] streptomycin (all from Corning Inc. New York, NY, USA). BALB/c mice were bred in-house. Mice of 8-10 weeks of age (females) were implanted with 0.5×10^6 cells into the mammary fat pad (4T1) or subcutaneously in the jaw region (LY2) and used for experiments 1 week later when tumors reached ˜200-300 mm^3. For brain tumors, C57BL/6 mice (6-8 weeks old) were implanted with a total 1×10^5 GL261 or CT-2A cells per animal using an established protocol. […]
A single-cell suspension of tumor tissue was prepared for flow cytometry analysis, as previously described. […] After incubation on ice for 20 minutes and washing, cells were analyzed for staining using the Guava EasyCyte HT flow cytometer (Merck KGaA). Cells were resuspended at ˜0.5 million/ml, and 20,000 events were detected. Dead cells and fragments were excluded with FSC/SSC dot plot, and the percentage of Cy5+ cells was analyzed with FlowJo software Version 10.6 (FlowJo, LLC). […]

[2] = Incubation of liposomes in liver homogenates, fluorescence ratio and TLC; assay type: in vitro ADME, BALB/c mice; settings: 24 h and 48 h incubation
Description: Liposomes were incubated at 2 mM in 80% mouse serum, PBS or 1% Tween/PBS for different times at 37° C. Following incubation, the samples were dotted on a nitrocellulose membrane and scanned at Cy3 and Cy5 wavelengths. Alternatively, to measure the release in serum, the samples were diluted after incubation 10-fold in PBS and ultracentrifuged at 80,000 rpm for 30 min, 4° C. using TLA-100.3 rotor of Beckman Optima ultracentrifuge. The supernatant in serum, liposomes in whole serum, and liposomes in PBS were dotted and scanned at Cy3 and Cy5 wavelengths with a Bio-Rad camera imager using Cy3 and Cy5 filters. The mean fluorescence of the dots was determined and used to calculate the percentage of release in serum. To measure the effect of tissue on DiI/Cy5 fluorescence ratio, livers from BALB/c mice were homogenized for 5 min in PBS (1:2 weight: volume ratio) using BioSpec Mini BeadBeater-16 tissue homogenizer with 1-2 zirconium beads added per tube. […]
For extraction using a modified Bligh-Dyer method, 50-100 mg tissue was homogenized as described above, 10 parts of chloroform/methanol (2:1) were added to the homogenate (considering that tissue weight is 1 part), and the samples were mixed at 1400 rpm for 2 h at room temperature on Eppendorf Thermomixer. […] The percentage of the injected DiI and Cy5 in the extract was calculated from the standard curve and divided by tissue weight. […]

[3] = TLC of liver extracts of mice injected with liposomes; assay type: in vivo; settings: 24 h and 48 h post-injection of DiI/Cy5-DSPE liposomes
Description: For extraction using a modified Bligh-Dyer method, 50-100 mg tissue was homogenized as described above, 10 parts of chloroform/methanol (2:1) were added to the homogenate (considering that tissue weight is 1 part), and the samples were mixed at 1400 rpm for 2 h at room temperature on Eppendorf Thermomixer. The tubes were centrifuged at 500 g for 10 min. The organic phase (bottom, approximately 80% of the added amount) was carefully collected, dotted on a PVDF membrane and scanned for DiI and Cy5 fluorescence as described above. Different dilutions of liposomes (standard curve) were scanned together with the samples. The percentage of the injected DiI and Cy5 in the extract was calculated from the standard curve and divided by tissue weight. The fluorescence of control non-injected organs was subtracted from that of injected organs. For TLC analysis, the mobile phase consisted of chloroform: methanol (9:1) with 1% trifluoroacetic acid and the samples were run on TLC Silica Gel 60 F254 plates (EMD Millipore).

**Q.** Which “accumulation in cells in the tumor” value [1] does the source give for `CCCCCCCCCCCCCCCCCC(=O)OC[C@H](COP(=O)(O)OCCNC(=O)CCCCCN1C(=CC=CC=CC2=[N+](C)c3ccccc3C2(C)C)C(C)(C)c2ccccc21)OC(=O)CCCCCCCCCCCCCCCCC` [Cy5-DSPE] here?
**A.** The value was “minimal accumulation”.

**Q.** What about the “TLC of extracts of liver homogenates” value [2] of the same compound?
**A.** The value was “appearance of degradation products”.

**Q.** What about the “TLC of liver extracts of injected mice” value [3] of the same compound?
**A.** Its value is “degradation and disappearance”.
